Assay results taken from patent US20230257423A1, “COMPOSITIONS FOR TREATING EPITHELIAL BARRIER FUNCTION DISORDERS” (ENTEROME, priority 2020, published 2023).

What was measured:
[1] = system: Monocyte-derived Dendritic Cells; assay: AlphaLISA IL10 secretion by dendritic cells; assay type: cell-based, human; settings: for IL-10 secretion from DCs in co-stimulation with TLR activators: LPS 100 ng/ml or FIMH 10 μg/ml, mean of 3 MoDC donors, FIG. 9
Description: Dendritic Cells (DCs) were prepared from PBMC (Buffy Coat) and differentiated with GM-CSF (D 1:10000; =5 μl/50 ml) and IL-4 (D 1:5000; =10 μl/50 ml).
In this test, 30,000 cells/well were seeded in complete IMDM media (2 mM L-glutamine, 50 IU/mL penicillin, […] streptomycin, 10 mM Hepes and 10% heat-inactivated foetal calf serum) in 96 wells plates 24h before activation (and kept in a humidified 5% CO2 atmosphere at 37° C.). Pre-purified, or HPLC-eluted, fractions as well as EB7020 chemically synthetized and various controls were added to reporter cells at 10% vol/vol to a final volume of 100 μl.
AlphaLisa (Perkin Elmer) was realized on supernatant according the supplier protocol (for complete references: AlphaLISA® Research Reagents Human Interleukin 10 (IL10) Kit Product No.: AL218 C/F sold by PerkinElmer).

PBMC derived DCs = assay: Array (transcriptomics) on PBMC derived DCs; assay type: cell-based, human; design: SLC39A14 gene expression / IL6 gene expression / CCL1 gene expression / CCL8 gene expression / TNF-α gene expression: unit not given here; settings: 3 donors, 6h, TNF-α 10 ng/ml, PHA 3 μg/ml, LPS 3 ng/ml, PAM3CSK4 10 ng/ml, MDP 5 μg/ml
Description: DCs from three different donors were seeded at 1.0×10^5 DCs/well in a 48 well plate in 0.5 ml of complete IMDM. The effect of the active fractions of the F4 clone was compared to the same fractions purified from the negative control (pBAD-fractions). TNF-α (10 ng/ml), PHA (3 μg/ml), LPS (3 ng/ml), PAM3CSK4 (10 ng/ml), and MDP 5 μg/ml were used as control.
Data were generated and analyzed using Spotfire software.
Transcriptomics was carried out on PBMC derived DCs from 3 donors.
DCs were stimulated (6h) with: • TNFα, PHA, LPS, PAM3CSK4, MDP=Positive control • F13, F25=HPLC fractions obtained from the complemented and functional F4D5-MsbA1-A2 clone • F4D5-pBAD-F13, F4D5-pBAD-F25=HPLC fractions obtained from the F4D5-pBADclone (negative control)
Data analysis was realised using TIBCO Spotfire software. The F4 fractions (from both positive and negative clones) were analysed individually and compared to known agonists (TNFα, PHA, LPS, PAM3CSK4, MDP).

Compound	IL-10 secretion from DCs in co-stimulation with TLR activators [1]	CCL1 gene expression (PBMC derived DCs)	CCL8 gene expression (PBMC derived DCs)	IL6 gene expression (PBMC derived DCs)	PERP gene expression (PBMC derived DCs)	PMP22 gene expression (PBMC derived DCs)	SLC39A14 gene expression (PBMC derived DCs)	TNF-α gene expression (PBMC derived DCs)	IL-10 secretion from human DCs ([1]; chemically synthesized compound, in presence of LPS, FIG. 8)
CC(=O)N[C@H]1[C@@H](OP(=O)(O)OP(=O)(O)OC[C@H]2O[C@@H](n3ccc(=O)[nH]c3=O)[C@H](O)[C@@H]2O)O[C@H](CO)[C@@H](O)[C@@H]1O[C@H](C)C(=O)N[C@@H](C)C(=O)N[C@H](CCC(=O)N[C@@H](CCC[C@@H](N)C(=O)O)C(=O)O)C(=O)O [EB7021, UDP-M-Tri-DAP]	Synergy								
TNF-α		4.2	11.2	32.9	1.0	0.8	1.2	5.6	
CC(=O)NC1C(OP(=O)(O)O)OC(CO)C(O)C1OC(C)C(=O)NC(C)C(=O)NC(CCC(=O)NC(CCCC(N)C(=O)O)C(=O)O)C(=O)O (stereo not shown) [EB7020, M-Tri-DAP monophosphate]	Synergy								IL-10 secretion is induced
CC(=O)NC1C(OP(=O)(O)OP(=O)(O)OC[C@H]2O[C@@H](n3ccc(=O)[nH]c3=O)C(O)C2O)OC(CO)C(O)C1OC(C)C(=O)NC(C)C(=O)NC(CCC(=O)NC(CCCC(N)C(=O)O)C(=O)NC(C)C(=O)O)C(=O)O (stereo partly shown) [EB7022, UDP-M-Tetrapeptide]	Synergy								
CC(=O)N[C@@H]1[C@@H](O[C@H](C)C(=O)N[C@@H](C)C(=O)N[C@H](CCC(=O)O)C(N)=O)[C@H](O)[C@@H](CO)O[C@H]1O [MDP]		3.1	4.1	9.4	1.6	1.0	0.9	3.5	
PAM3CSK4		30.6	64.8	718.1	2.6	1.0	1.6	28.4	
